Assay results from ChEMBL document CHEMBL4330072, “Neuroprotective effects of a novel carnosine-hydrazide derivative on hippocampal CA1 damage after transient cerebral ischemia” (Eur J Med Chem, 2019).
Activity calls are given as the source filed them. No cut-off for these calls is given here.

Legend:
[1] = Quenching activity of compound in pH 7.4 PBS assessed as 4-HNE consumption at 2 mmol/L after 1 hr by HPLC analysis; assay type: functional
[2] = Quenching activity of compound in pH 7.4 PBS assessed as 4-HNE consumption at 2 mmol/L after 30 mins by HPLC analysis relative to control; assay type: functional
[3] = test system: Meriones unguiculatus; assay: (§1) Neuroprotective activity against BCCO-induced transient cerebral ischemia in mongolian gerbil hippocampal CA1 region assessed as increase in viable neurons at 100 mg/kg, ip administered immediately after BCCO treatment and measured after 7 days by hematoxylin and eosin staining-based light microscopic analysis; assay type: functional, organism-based
[4] = test system: PC-12; assay: Cytotoxicity against rat PC12 cells at 1 to 50 mM after 30 mins by MTT assay; assay type: cell-based; settings: pc-12, 0.5 h, 50000 µM
[5] = test system: PC-12; assay: Neuroprotective activity against 4-HNE-induced toxicity in rat PC12 cells preincubated for 30 mins followed by compound wash and 4-HNE addition measured after 24 hrs by MTT assay; assay type: functional, cell-based
[6] = test system: PC-12; assay: Neuroprotective activity against 4-HNE-induced toxicity in rat PC12 cells at 30 mM preincubated for 30 mins followed by compound wash and 4-HNE addition measured after 24 hrs by MTT assay relative to control; assay type: functional
[7] = test system: Meriones unguiculatus; assay: as §1, with “20” for “100”, “20 mins prior to” for “immediately after”, “analysis relative to control” for “analysis”; assay type: functional
[8] = test system: Meriones unguiculatus; assay: as §1, with “analysis relative to control” for “analysis”; assay type: functional
[9] = test system: Meriones unguiculatus; assay: Neuroprotective activity against BCCO-induced transient cerebral ischemia in mongolian gerbil hippocampal CA1 region assessed as increase in Hsp70 activity at 20 mg/kg, ip administered 20 mins prior to BCCO treatment measured after 24 hrs by immunostaining analysis; assay type: functional, organism-based

| SMILES | Activity [1] | Activity [2] [%] | further results |
| --- | --- | --- | --- |
| NNC(=O)[C@@H](N)Cc1c[nH]cn1 | Active | 70 | Activity [3]: inactive |
| CC(=O)NNC(=O)[C@H](Cc1c[nH]cn1)NC(=O)CCN | Active |  |  |
| NCCC(=O)N[C@@H](Cc1c[nH]cn1)C(=O)O | Active | 20 |  |
| CC(=O)NCCC(=O)N[C@@H](Cc1c[nH]cn1)C(=O)NNC(C)=O | Active |  |  |
| CC(=O)NCCC(=O)N[C@@H](Cc1c[nH]cn1)C(=O)NN | Active |  |  |
| NCCC(=O)N[C@@H](Cc1c[nH]cn1)C(=O)NN | Active | 90 | Activity [4]: Non-Toxic; Activity [5]: Dose-dependent effect; Activity [6]: 100%; Activity [7]: >60%; Activity [8]: 40%; Activity [9]: Active |
